Measured values taken from patent US12630523B2, “Isoquinoline derivatives for use as antiviral and antitumour agents” (priority 2021, dated 2026).
Where “and” joins values, the source holds several entries; their conditions need not be identical. Equal entries are not always repeated. Where two headings read alike, the source gives them in different places.

What was measured:
[1] = system: human cervical carcinoma (CaSki) xenograft; experiment: CaSki high risk HPV16 human cervical carcinoma xenograft model; type: in vivo, nude mice; settings: for % TGI (Day 44): percentage tumor growth inhibition with respect to controls / Δ% on Day 44 / Δ% Body Weight: OC246/OC974 os 2 mg/kg/day; for % TGI (Day 44): percentage tumor growth inhibition with respect to controls: 4 × week; for % TGI (Day 44): percentage tumor growth inhibition with respect to controls / Tumor Volume Day 44 (mm^3 ± SD): 3 cycles, CDDP i.v. q7d × 3, 6 mg/kg; for Δ% on Day 44 / Δ% Body Weight: CDDP i.v. 6 mg/kg; for Δ% on Day 44: control 100; for Tumor Volume Day 44 (mm^3 ± SD): OC246/OC974 os daily 4 × week, 2 mg/kg/day, control 1099 ± 503; for Δ% Body Weight: between first day of treatment (day 20) and Day 44, control +4.9
Description: The aim of this study was to assess the in vivo efficacy of OC246 and OC974 on a human cervical carcinoma (CaSki) xenograft model in nude mice. OC246 and OC974 were administered oral once daily for four times with three days off, for three cycles at 2 mg/kg/dose. Cisplatin (CDDP) was used as a reference compound with three weekly intravenous (q7dx3) administrations of 6 mg/kg.

[2] = system: SARS-CoV-2 isolate BetaCov/Belgium/GHB-03021/2020; experiment: microbe, parasite or virus in culture; type: cell-based; settings: for inhibition at 1.25 µM: Severe acute respiratory syndrome coronavirus 2, 1.25 μM (non-toxic compound concentration), n4; for SARS-CoV-2 antiviral activity, mono treatment or combination (FIG. 10): Vero E6 cells, VSP035 10-0.625 μM
[3] = system: CaSki (ATCC CRM-CRL-1550); experiment: Monolayer assay using Sulphorhodamine B (SRB) staining, CaSki; type: cell-based; settings: Homo sapiens, Ca-Ski
How it was run: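 After 24 h recovery, 10.000–30.000 cells/well treated 72 h with compound at 9 concentrations. Cells TCA-fixed (10% final) 1 h at 4 °C, SRB-stained, optical density read at 540 nm; EC50 for growth inhibition from non-linear regression of log concentration versus % T/C.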

CaSki cells = experiment: Cell cycle analysis using Propidium-Iodide staining (flow cytometry); type: cell-based, human; settings: 48 hour incubation; for A*/5 μM (apoptosis as measured from total SUB G1 content) / A*/10 μM (apoptosis as measured from total SUB G1 content): no treatment 15.0; for G2/5 μM / G1/5 μM / G2/10 μM / G1/10 μM: cell cycle distribution; for G2/5 μM / G2/10 μM: no treatment 15.6; for G1/5 μM / G1/10 μM: no treatment 53.3
Description: Propidium-Iodide (PI) DNA staining is performed to facilitate cell cycle analysis. For PI-DNA staining, fixed cells and eventually antibody-stained cells are resuspended in 450 μl of PBS (per 10^6 cells) and incubated with 100 μg/ml RNase (stock 1 mg/ml, in PBS) for 10 minutes at 37° C. Cells are then incubated with 5 μg/106 cells of PI (stock 1 mg/ml in PBS) for 10 minutes at room temperature. Samples are stored at 4° C. until CF analysis.
CaSki cells were incubated with various compounds and cell cycle distribution of the cells was assessed using Propidium-Iodide staining.
In order to analyze the cytostatic versus the cytotoxic effect of OC compounds, cell cycle profiles were analyzed in vitro after 48 hour incubations using Flow Cytometry as a read out. For this a cell cycle analysis from selected OC E7 degrader compounds was conducted in CaSki cells. Using 6 well plates, 1.5×10^5 cells were seeded for each well and grown over night at 37° C. 5% CO2. For analysis of the cell cycle behavior, cells were analyzed in the presence of propidium Iodide (PI^−) by flow cytometry (FC). Briefly, cells were detached by trypsin digestion, all supernatants were included in the analysis, and fixed with 70% ice cold ethanol and stored at 4° C. until FC analysis using PI^− staining (1 mg/ml). At least 7000 events were acquired for each sample.

[4] = system: cell signaling molecules (4E-BP1, p70 S6 kinase, Akt, PTPN14, p53, PD-L1); experiment: Western blot of cell signaling molecules in CaSki cells

Row | SMILES | % TGI (Day 44): percentage tumor growth inhibition with respect to controls [1] | Δ% on Day 44 [1] | Tumor Volume Day 44 (mm^3 ± SD) [1] | Δ% Body Weight [1] | inhibition at 1.25 µM [2] | EC50 ([3]; read-out: EC50 mean [nM]) | A*/5 μM (apoptosis as measured from total SUB G1 content) (CaSki cells) | A*/10 μM (apoptosis as measured from total SUB G1 content) (CaSki cells) | G2/5 μM (CaSki cells) | G1/5 μM (CaSki cells) | G2/10 μM (CaSki cells) | G1/10 μM (CaSki cells) | also measured
1 | CN1CCC(CN2C(=O)c3ccccc3[C@@H](C(=O)Nc3cccc(N4CCN(C)CC4)c3)[C@@H]2c2ccc(C(F)(F)F)cc2)CC1 (racemic) [OC974, (3R,4R)- and (3S,4S)-N-[3-(4-methylpiperazin-1-yl)phenyl]-2-[(1-methylpiperidin-4-yl)methyl]-1-oxo-3-[4-(trifluoromethyl)phenyl]-3,4-dihydroisoquinoline-4-carboxamide] | 63.9% | 23% | 307 ± 171 mm^3 | +1.1% | 54.3% | 1550 nM | 19.5% | 82.9% and 81.8% | 9.9% | 49.6% | 0.8% | 8.7% | 
2 | Cc1ccc(CN2C(=O)c3ccccc3[C@H](C(=O)Nc3cccc(N4CCN(C)CC4)c3)[C@@H]2c2ccc(C(F)(F)F)cc2)cc1 [OC246, N-[3-(4-methylpiperazin-1-yl)phenyl]-2-[(4-methylphenyl)methyl]-1-oxo-3-[4-(trifluoromethyl)phenyl]-1,2,3,4-tetrahydroisoquinoline-4-carboxamide] | 66.6% | 27% | 371 ± 153 mm^3 | +5.5% | 45.7% | 3050 nM | 19.6% | 89.4% | 15.7% | 48.0% | 0.2% | 1.5% | EC50 ([3]; 72 h): 2890 nM; signaling of phosphor-Akt S473 ([4]; 10 μM, 4 hours, CaSki and U2OS cells): does not inhibit
3 | CN1CCC(CN2C(=O)c3ccccc3[C@H](C(=O)Nc3cccc(N4CCN(C)CC4)c3)[C@H]2c2ccc(C(F)(F)F)cc2)CC1 [VSP035, (3S,4S)-N-[3-(4-methylpiperazin-1-yl)phenyl]-2-[(1-methylpiperidin-4-yl)methyl]-1-oxo-3-[4-(trifluoromethyl)phenyl]-1,2,3,4-tetrahydroisoquinoline-4-carboxamide] |  |  |  |  | 72.4% | 3750 nM |  |  |  |  |  |  | SARS-CoV-2 antiviral activity, mono treatment or combination (FIG. 10) [2]: moderate; SARS-CoV-2 antiviral activity, mono treatment or combination (FIG. 10) ([2]; listed as VS035): Robust antiviral activities; PDL-1 regulation ([4]; CaSki, 4 and 8 hours, dose dependent): valid pdl-1 destabilizer; p(S473)Akt, Sting and Irf-3 levels ([4]; CaSki, 10 μm VSP035 time course): do not appear to be influenced; Ptpn14 and p53 levels ([4]; CaSki, 10 μm, 24 h time point): increase in Ptpn14 and p53; Phosphorylation of 4E-BP1 on Ser65 and the p70S6 kinase on Thr389 ([4]; CaSki, 6 h, order 10 μM VSP035, Torin 1, Torin 2, rapamycin, 5 μM VSP035, CGP 57380): inhibited or strongly reduced; 4E-BP1 phosphorylation state ([4]; CaSki, 6 h treatment): dose dependent hypophosphorylation of 4E-BP1
